Source: the supplement of paper PMC10307832

Legend:
Experiment in all cases: relative viability (nuclei count vs DMSO), 5 days (fraction); higher = more cells survive
Sulindac + Pemetrexed = compound: CC1=C(CC(=O)O)c2cc(F)ccc2/C1=C\c1ccc([S+](C)[O-])cc1 [Sulindac] + Nc1nc2[nH]cc(CCc3ccc(C(=O)N[C@@H](CCC(=O)O)C(=O)O)cc3)c2c(=O)[nH]1 [Pemetrexed] (partner 0.2 µM)
In short: (§1)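 Relative viability equals treated-well nuclei counts divided by vehicle-well nuclei counts. Counts came from 4× images of lung cancer cell lines grown in 1536-well plates for 5 days after pin-tool dosing on the day after seeding. Dosing used one drug alone or a fixed anchor-drug dose plus five library-drug doses (not always all listed) in √10 steps, and values are medians of duplicate plates.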

[1] = compound: O=c1[nH]cc(F)c(=O)[nH]1 [5-Fluorouracil] + Cc1cc(Nc2cc(N3CCN(C)CC3)nc(Sc3ccc(NC(=O)C4CC4)cc3)n2)n[nH]1 [Tozasertib] (partner 0.1 µM)
In short: as §1

[2] = compound: O=c1[nH]cc(F)c(=O)[nH]1 [5-Fluorouracil] + O=C(c1cc(Cc2n[nH]c(=O)c3ccccc23)ccc1F)N1CCN(C(=O)C2CC2)CC1 [Olaparib] (partner 8 µM)
In short: as §1

Sulindac + Vorinostat = compound: CC1=C(CC(=O)O)c2cc(F)ccc2/C1=C\c1ccc([S+](C)[O-])cc1 [Sulindac] + O=C(CCCCCCC(=O)Nc1ccccc1)NO [Vorinostat] (partner 1 µM)
In short: as §1

Cell Line | relative viability (Sulindac + Pemetrexed; first compound 0.08 µM) | relative viability (Sulindac + Pemetrexed; first compound 0.253 µM) | relative viability (Sulindac + Pemetrexed; first compound 0.8 µM) | relative viability (Sulindac + Pemetrexed; first compound 2.53 µM) | relative viability (Sulindac + Pemetrexed; first compound 8 µM) | relative viability ([1]; first compound 0.02 µM) | relative viability ([1]; first compound 0.2 µM) | relative viability ([1]; first compound 0.6325 µM) | relative viability ([1]; first compound 2 µM) | relative viability ([2]; first compound 0.02 µM) | relative viability ([2]; first compound 0.2 µM) | relative viability ([2]; first compound 0.6325 µM) | relative viability ([2]; first compound 2 µM) | relative viability (Sulindac + Vorinostat; first compound 0.08 µM) | relative viability (Sulindac + Vorinostat; first compound 0.253 µM) | relative viability (Sulindac + Vorinostat; first compound 0.8 µM) | relative viability (Sulindac + Vorinostat; first compound 2.53 µM) | relative viability (Sulindac + Vorinostat; first compound 8 µM)
HCC-44 | 0.663 | 0.695 | 0.667 | 0.632 | 0.646 | 1.19 | 0.844 | 0.739 | 0.291 | 1.03 | 1.02 | 0.979 | 0.651 | 1.14 | 1.1 | 1.14 | 1.1 | 1.1
HCC-78 | 0.923 | 0.878 | 0.751 | 0.924 | 0.953 | 1.46 | 0.395 | 0.37 | 0.264 | 0.755 | 0.599 | 0.331 | 0.28 | 0.363 | 0.415 | 0.433 | 0.455 | 0.462
COR-L23 | 0.177 | 0.202 | 0.206 | 0.192 | 0.204 |  |  |  |  | 0.36 | 0.312 | 0.273 | 0.18 | 0.453 | 0.471 | 0.399 | 0.499 | 0.561
NCI-H2009 | 1.07 | 1.02 | 1.03 | 1.01 | 1.25 | 0.802 | 0.793 | 0.684 | 0.474 | 0.794 | 0.668 | 0.655 | 0.466 | 0.84 | 0.84 | 0.748 | 0.649 | 0.81
NCI-H3122 | 0.203 | 0.194 | 0.207 | 0.176 | 0.214 | 0.382 | 0.356 | 0.203 | 0.157 | 0.51 | 0.542 | 0.299 | 0.216 | 0.98 | 0.752 | 0.762 | 0.964 | 1.13
NCI-H2228 | 0.376 | 0.445 | 0.289 | 0.371 | 0.319 | 0.293 | 0.25 | 0.24 | 0.187 | 0.998 | 0.671 | 0.44 | 0.33 | 0.588 | 0.831 | 0.497 | 0.981 | 0.865
NCI-H1944 | 0.701 | 0.636 | 0.412 | 0.582 | 0.722 | 0.253 | 0.256 | 0.218 | 0.153 | 0.389 | 0.379 | 0.298 | 0.187 | 0.604 | 0.62 | 0.506 | 0.574 | 0.571
NCI-H1648 | 0.889 | 0.781 |  | 0.569 | 0.787 | 0.442 | 0.457 | 0.372 | 0.207 | 0.632 | 0.796 | 0.638 | 0.332 | 0.44 | 0.318 |  | 0.402 | 0.512
NCI-H358 | 0.183 | 0.157 | 0.17 | 0.151 | 0.182 | 0.132 | 0.104 | 0.0975 | 0.103 | 0.637 | 0.686 | 0.612 | 0.39 | 0.842 | 0.722 | 0.601 | 0.669 | 0.897
